Assay results from patent US5321030A, “Creatine analogs having antiviral activity” (priority 1991, dated 1994).
≈ marks a conversion by molar mass, not a printed value. Like-named read-outs stand apart in the source and are kept apart here.

Experiments:
HSV-1 = experiment: Cytopathic effect (CPE) assay, HSV-1
[1] = system: herpes simplex virus type 2 (HSV-2), strain E194; experiment: HSV-2 vaginitis in mice; type: in vivo, Swiss Webster female mice; details: for Mean Day to Death: virus infected
[2] = system: Pseudorabies virus, Aujeszky strain; type: cell-based; details: similar assay
in vivo = type: in vivo; details: for survival: mouse, in vivo, read-out: Survivors/Total (%); for Weight Change: uninfected, combined animal weights day 0 to day 15
in vitro = details: monkey, vero cells
HSV-2 = experiment: Cytopathic effect (CPE) assay, HSV-2; details: Human alphaherpesvirus 2, Vero, read-out: concentration required to inhibit cytopathogenicity by 60% or 70%
[3] = system: Herpes Simplex Virus, Type 1, strain BW10168 (TK-); experiment: microbe, parasite or virus in culture; type: cell-based; parameters: TI50 (CD50 ÷ ED50): unit not given beside the values; details: for Average CPE: virus controls 4.0

Nc1nc2c(ncn2COCCO)c(=O)[nH]1 [acyclovir]
EC65 (HSV-1; Human alphaherpesvirus 1, Vero, read-out: dose required to inhibit cytopathogenicity by 65%): 0.97 µM
EC50 (HSV-1; Human alphaherpesvirus 1, read-out: in vitro ED50): 7 µM
average lesion score ([1]; 25 mg/kg/day gavage, Grand Ave. (Days 3-14)): 1.5 ± 0.6
average lesion score ([1]; 25 mg/kg/day gavage, day 3): 0.1 ± 0.2
average lesion score ([1]; 25 mg/kg/day gavage, day 5): 1.3 ± 1.5
average lesion score ([1]; 25 mg/kg/day gavage, day 6): 1.3 ± 1.3
average lesion score ([1]; 25 mg/kg/day gavage, day 7): 1.7 ± 1.6
average lesion score ([1]; 25 mg/kg/day gavage, day 8): 2.1 ± 1.5
average lesion score ([1]; 25 mg/kg/day gavage, day 9): 2.1 ± 1.4
average lesion score ([1]; 25 mg/kg/day gavage, day 10): 2.0 ± 1.2
average lesion score ([1]; 25 mg/kg/day gavage, day 11): 1.9 ± 1.3
average lesion score ([1]; 25 mg/kg/day gavage, day 12): 1.9 ± 1.4
average lesion score ([1]; 25 mg/kg/day gavage, day 13): 1.8 ± 1.5
average lesion score ([1]; 25 mg/kg/day gavage, day 14): 1.8 ± 1.5
average lesion score ([1]; 50 mg/kg/day gavage, Grand Ave. (Days 3-14)): 0.8 ± 0.3
average lesion score ([1]; 50 mg/kg/day gavage, day 3): 0.0 ± 0.0
average lesion score ([1]; 50 mg/kg/day gavage, day 4): 0.2 ± 0.3
average lesion score ([1]; 50 mg/kg/day gavage, day 5): 1.0 ± 1.8
average lesion score ([1]; 50 mg/kg/day gavage, day 6): 0.5 ± 0.7
average lesion score ([1]; 50 mg/kg/day gavage, day 7): 0.8 ± 1.2
average lesion score ([1]; 50 mg/kg/day gavage, day 8): 0.8 ± 0.9
average lesion score ([1]; 50 mg/kg/day gavage, day 10): 0.9 ± 1.2
average lesion score ([1]; 50 mg/kg/day gavage, day 11): 0.9 ± 1.2
average lesion score ([1]; 50 mg/kg/day gavage, day 12): 0.9 ± 1.2
average lesion score ([1]; 50 mg/kg/day gavage, day 14): 1.0 ± 1.3
average lesion score ([1]; 100 mg/kg/day gavage, Grand Ave. (Days 3-14)): 0.7 ± 0.4
average lesion score ([1]; 100 mg/kg/day gavage, day 3): 0.1 ± 0.2
average lesion score ([1]; 100 mg/kg/day gavage, day 4): 0.2 ± 0.3
average lesion score ([1]; 100 mg/kg/day gavage, day 5): 0.4 ± 0.4
average lesion score ([1]; 100 mg/kg/day gavage, day 6): 0.5 ± 0.5
average lesion score ([1]; 100 mg/kg/day gavage, day 7): 0.6 ± 0.7
average lesion score ([1]; 100 mg/kg/day gavage, day 8): 0.8 ± 0.9
average lesion score ([1]; 100 mg/kg/day gavage, day 9): 0.9 ± 0.9
average lesion score ([1]; 100 mg/kg/day gavage, day 10): 1.4 ± 1.2
average lesion score ([1]; 100 mg/kg/day gavage, day 11): 1.0 ± 1.3
average lesion score ([1]; 100 mg/kg/day gavage, day 12): 1.1 ± 1.3
average lesion score ([1]; 100 mg/kg/day gavage, day 13): 0.8 ± 0.9
average lesion score ([1]; 100 mg/kg/day gavage, day 14): 0.7 ± 0.9
average lesion score ([1]; 200 mg/kg/day gavage, Grand Ave. (Days 3-14)): 0.6 ± 0.3
average lesion score ([1]; 200 mg/kg/day gavage, day 3): 0.1 ± 0.2
average lesion score ([1]; 200 mg/kg/day gavage, day 4): 0.1 ± 0.2
average lesion score ([1]; 200 mg/kg/day gavage, day 5): 0.4 ± 0.5
average lesion score ([1]; 200 mg/kg/day gavage, day 6): 0.2 ± 0.3
average lesion score ([1]; 200 mg/kg/day gavage, day 7): 0.4 ± 0.5
average lesion score ([1]; 200 mg/kg/day gavage, day 8): 0.7 ± 0.6
average lesion score ([1]; 200 mg/kg/day gavage, day 9): 0.9 ± 0.7
average lesion score ([1]; 200 mg/kg/day gavage, day 10): 1.0 ± 0.6
average lesion score ([1]; 200 mg/kg/day gavage, day 11): 0.7 ± 0.7
average lesion score ([1]; 200 mg/kg/day gavage, day 12): 0.7 ± 0.7
average lesion score ([1]; 200 mg/kg/day gavage, day 13): 0.8 ± 0.7
average lesion score ([1]; 200 mg/kg/day gavage, day 14): 0.7 ± 0.7
activity in vaginitis model ([1]; 5% cream topical): very effective
average lesion score ([1]; acyclovir 5% cream topical, Grand Ave. (Days 3-14)): 0.3 ± 0.2
average lesion score ([1]; acyclovir 5% cream topical, day 3): 0.1 ± 0.1
average lesion score ([1]; acyclovir 5% cream topical, day 4): 0.1 ± 0.1
average lesion score ([1]; acyclovir 5% cream topical, day 5): 0.1 ± 0.2
average lesion score ([1]; acyclovir 5% cream topical, day 6): 0.2 ± 0.2
average lesion score ([1]; acyclovir 5% cream topical, day 7): 0.2 ± 0.2
average lesion score ([1]; acyclovir 5% cream topical, day 8): 0.2 ± 0.3
average lesion score ([1]; acyclovir 5% cream topical, day 9): 0.2 ± 0.2
average lesion score ([1]; acyclovir 5% cream topical, day 10): 0.6 ± 0.8
average lesion score ([1]; acyclovir 5% cream topical, day 11): 0.5 ± 0.7
average lesion score ([1]; acyclovir 5% cream topical, day 12): 0.3 ± 0.6
average lesion score ([1]; acyclovir 5% cream topical, day 13): 0.3 ± 0.6
average lesion score ([1]; acyclovir 5% cream topical, day 14): 0.3 ± 0.6
Mean Day to Death ([1]; ACV 25 mg/kg): 10.4 ± 2.5
Mean Day to Death ([1]; ACV 50 mg/kg): 11.3 ± 2.1
Mean Day to Death ([1]; ACV 100 mg/kg): 12.0 ± 1.4
Mean Day to Death ([1]; ACV 200 mg/kg): 11.3 ± 2.5
effect against Pseudorabies virus [2]: ineffective
survival (in vivo; 25 mg/kg): 100%
survival (in vivo; 50 mg/kg): 100%
survival (in vivo; 100 mg/kg): 100%
survival (in vivo; 200 mg/kg): 100%
Weight Change (in vivo; ACV 25 mg/kg): 2.8 g
Weight Change (in vivo; ACV 50 mg/kg): 4.0 g
Weight Change (in vivo; ACV 100 mg/kg): 3.5 g
Weight Change (in vivo; ACV 200 mg/kg): 4.8 g
CC50 (in vitro): > 1000 µg/mL
EC (60 or 70) (HSV-2): 1.95 µM
Average CPE ([3]; Acyclovir 1.0 μg/ml): 4.0
Average CPE ([3]; Acyclovir 3.2 μg/ml): 3.2
Average CPE ([3]; Acyclovir 10 μg/ml): 1.5
Average CPE ([3]; Acyclovir 32 μg/ml): 0.3
Average CPE ([3]; Acyclovir 100 μg/ml): 0.5
Average CPE ([3]; Acyclovir 316 μg/ml): 0.2
Average CPE ([3]; Acyclovir 1000 μg/ml): 0
EC50 ([3]; Human alphaherpesvirus 1, Vero, read-out: ED50, Vero cells, Table 8): 10.6 µg/mL (≈ 47.1 µM)
TI50 (CD50 ÷ ED50) ([3]; Vero cells, Table 8): > 94
